# In patent US20100311729A1, “Substituted imidazopyridazines and pyrrolopyrimidines as lipid kinase inhibitors” (priority 2007, published 2010):
# What was measured:
# Assay type in all cases: biochemical
# PI3K alfa = biological target: T1, PI3K alfa (Homo sapiens, UniProt P42336); experiment: PI3 kinase assay (Kinase-Glo luminescence), PI3K alfa; details: Enzymatic Data; read-out: PI3K alfa IC50 [umol]
# T1 construct: for the p110-a subunit (with a deletion of the first 20 amino acids); His tag (C); made in house; host or cells: baculovirus; Tn5 (Trichoplusia ni) or TiniPro insect cells
# T1 sequence (P42336 with tags, fused parts or gaps limits assumed): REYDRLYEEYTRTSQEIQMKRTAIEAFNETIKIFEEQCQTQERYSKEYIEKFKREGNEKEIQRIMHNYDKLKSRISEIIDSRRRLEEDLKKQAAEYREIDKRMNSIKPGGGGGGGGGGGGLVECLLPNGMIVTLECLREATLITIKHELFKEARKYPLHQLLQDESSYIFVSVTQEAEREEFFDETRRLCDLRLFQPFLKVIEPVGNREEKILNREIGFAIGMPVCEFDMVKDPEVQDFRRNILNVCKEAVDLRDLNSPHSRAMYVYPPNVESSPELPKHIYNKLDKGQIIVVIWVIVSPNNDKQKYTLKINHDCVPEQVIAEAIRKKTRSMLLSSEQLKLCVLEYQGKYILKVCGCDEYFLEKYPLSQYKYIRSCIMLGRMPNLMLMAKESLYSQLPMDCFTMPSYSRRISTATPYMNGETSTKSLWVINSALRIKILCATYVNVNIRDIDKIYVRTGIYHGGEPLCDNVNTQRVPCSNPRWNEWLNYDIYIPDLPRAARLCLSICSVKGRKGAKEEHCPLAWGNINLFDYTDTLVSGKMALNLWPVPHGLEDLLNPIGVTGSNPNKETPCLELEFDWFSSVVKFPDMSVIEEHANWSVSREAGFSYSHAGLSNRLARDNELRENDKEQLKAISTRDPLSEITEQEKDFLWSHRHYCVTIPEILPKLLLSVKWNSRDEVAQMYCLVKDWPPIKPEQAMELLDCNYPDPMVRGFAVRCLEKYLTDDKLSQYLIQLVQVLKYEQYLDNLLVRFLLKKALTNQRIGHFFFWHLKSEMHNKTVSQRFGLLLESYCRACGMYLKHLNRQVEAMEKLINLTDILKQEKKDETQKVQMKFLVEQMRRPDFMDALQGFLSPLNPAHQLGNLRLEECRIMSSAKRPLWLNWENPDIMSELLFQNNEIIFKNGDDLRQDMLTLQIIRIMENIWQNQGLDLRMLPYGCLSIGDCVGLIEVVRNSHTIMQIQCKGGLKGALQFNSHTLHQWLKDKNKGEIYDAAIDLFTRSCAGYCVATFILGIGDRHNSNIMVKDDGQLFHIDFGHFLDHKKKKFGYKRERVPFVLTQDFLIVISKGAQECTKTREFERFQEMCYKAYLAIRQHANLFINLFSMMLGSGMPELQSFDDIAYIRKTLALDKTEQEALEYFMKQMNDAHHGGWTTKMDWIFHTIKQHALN
# Summary of the method: (§1)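 Recombinant PI3K constructs (alfa 10 nM, delta 10 nM, gamma 150 nM) with 1 μM ATP and 10 μg/mL phosphatidylinositol in Tris pH 7.5, MgCl2, NaCl, CHAPS, DTT; 60 min (alfa, delta) or 120 min (gamma) at room temperature. ATP depletion read by Kinase-Glo luminescence; IC50 from 4-parameter logistic fit over 8 concentrations.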
# PI3K delta = biological target: T2, PI3K delta (Homo sapiens, UniProt O00329); experiment: PI3 kinase assay (Kinase-Glo luminescence), PI3K delta; details: Enzymatic Data; read-out: PI3K delta IC50 [umol]
# T2 construct: for the full-length p110-d subunit are generated and fused by overlapping PCR; His tag (C); made in house; host or cells: baculovirus; Tn5 (Trichoplusia ni) or TiniPro insect cells
# T2 sequence (O00329 with tags, fused parts or gaps limits assumed): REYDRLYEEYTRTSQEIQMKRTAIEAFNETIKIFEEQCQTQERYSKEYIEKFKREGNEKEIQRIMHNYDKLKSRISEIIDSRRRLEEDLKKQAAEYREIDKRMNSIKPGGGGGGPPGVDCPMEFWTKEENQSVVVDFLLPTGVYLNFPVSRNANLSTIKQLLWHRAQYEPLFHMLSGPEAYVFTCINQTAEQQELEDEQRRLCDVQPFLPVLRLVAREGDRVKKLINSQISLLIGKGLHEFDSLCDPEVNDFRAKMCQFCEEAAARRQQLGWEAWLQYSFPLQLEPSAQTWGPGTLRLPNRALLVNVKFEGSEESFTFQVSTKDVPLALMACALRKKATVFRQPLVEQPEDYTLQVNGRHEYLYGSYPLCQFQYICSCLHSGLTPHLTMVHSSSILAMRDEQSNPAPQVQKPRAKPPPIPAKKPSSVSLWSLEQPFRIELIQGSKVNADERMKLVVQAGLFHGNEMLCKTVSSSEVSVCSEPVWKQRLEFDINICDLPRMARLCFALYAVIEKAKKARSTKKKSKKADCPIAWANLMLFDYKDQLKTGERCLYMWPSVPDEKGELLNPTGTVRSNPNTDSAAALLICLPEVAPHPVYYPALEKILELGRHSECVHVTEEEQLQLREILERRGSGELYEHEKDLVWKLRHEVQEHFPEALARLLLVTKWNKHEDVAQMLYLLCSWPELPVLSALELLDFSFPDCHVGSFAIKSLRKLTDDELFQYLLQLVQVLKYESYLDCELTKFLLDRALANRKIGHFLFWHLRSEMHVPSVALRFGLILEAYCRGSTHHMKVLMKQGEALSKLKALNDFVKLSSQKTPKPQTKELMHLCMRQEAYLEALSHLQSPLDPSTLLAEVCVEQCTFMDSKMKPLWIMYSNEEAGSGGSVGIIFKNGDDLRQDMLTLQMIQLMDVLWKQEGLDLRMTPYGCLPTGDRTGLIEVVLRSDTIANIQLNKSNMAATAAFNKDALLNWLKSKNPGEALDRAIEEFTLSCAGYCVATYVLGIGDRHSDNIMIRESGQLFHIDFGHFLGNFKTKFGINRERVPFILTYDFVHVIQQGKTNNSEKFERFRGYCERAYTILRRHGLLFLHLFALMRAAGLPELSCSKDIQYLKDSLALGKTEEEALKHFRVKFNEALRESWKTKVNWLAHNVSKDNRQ
# Summary of the method: as §1
# PI3K gamma = biological target: T3, PI3K gamma (Homo sapiens, UniProt P48736); experiment: PI3 kinase assay (Kinase-Glo luminescence), PI3K gamma; details: Enzymatic Data; read-out: PI3K gamma IC50 [umol]
# T3 construct: PI3Kγ BV-950 p110g(D144aa)-C-Term His Tag; His tag (C); made in house; host or cells: construct from the Roger Williams lab (MRC LMB) in pVL1393; baculovirus; Tn5 (Trichoplusia ni) or TiniPro insect cells
# T3 sequence (P48736 144-1102 limits assumed): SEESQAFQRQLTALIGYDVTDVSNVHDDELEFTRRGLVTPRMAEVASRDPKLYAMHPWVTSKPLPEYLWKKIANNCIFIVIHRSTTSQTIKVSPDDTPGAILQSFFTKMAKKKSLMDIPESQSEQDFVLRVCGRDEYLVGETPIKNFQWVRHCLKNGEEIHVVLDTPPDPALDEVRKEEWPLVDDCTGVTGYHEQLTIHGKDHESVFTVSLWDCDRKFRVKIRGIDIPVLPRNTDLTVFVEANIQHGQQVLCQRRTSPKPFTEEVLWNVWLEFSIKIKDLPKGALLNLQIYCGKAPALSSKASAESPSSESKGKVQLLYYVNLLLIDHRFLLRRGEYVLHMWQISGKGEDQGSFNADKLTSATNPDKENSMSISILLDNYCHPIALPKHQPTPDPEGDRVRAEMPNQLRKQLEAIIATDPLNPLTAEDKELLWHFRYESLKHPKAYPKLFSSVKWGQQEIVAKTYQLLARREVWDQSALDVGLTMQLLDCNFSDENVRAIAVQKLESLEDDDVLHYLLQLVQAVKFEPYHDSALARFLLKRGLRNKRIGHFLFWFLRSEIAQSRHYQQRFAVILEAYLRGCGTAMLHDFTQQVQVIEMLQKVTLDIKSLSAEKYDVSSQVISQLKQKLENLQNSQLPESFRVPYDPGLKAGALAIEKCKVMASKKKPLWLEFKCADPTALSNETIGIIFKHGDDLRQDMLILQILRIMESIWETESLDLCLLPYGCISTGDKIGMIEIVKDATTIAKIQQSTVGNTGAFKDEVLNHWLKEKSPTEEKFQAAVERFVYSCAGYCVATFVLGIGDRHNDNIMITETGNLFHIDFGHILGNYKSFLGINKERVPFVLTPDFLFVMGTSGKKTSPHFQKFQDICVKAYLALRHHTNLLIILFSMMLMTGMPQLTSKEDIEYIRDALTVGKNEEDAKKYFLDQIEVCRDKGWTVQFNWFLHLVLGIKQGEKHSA
# Summary of the method: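 Kinase-Glo luminescence assay with 1 μM ATP and 10 μg/mL phosphatidylinositol (final), reaction started by ATP addition. IC50 from 4-parameter logistic fit of percent inhibition at 8 compound concentrations (usually 10 down to 0.003 […]).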
# PI3K beta = biological target: T4, PI3K beta (Homo sapiens, UniProt P42338); experiment: PI3 kinase assay (Kinase-Glo luminescence), PI3K beta; details: Enzymatic Data; read-out: PI3K beta IC50 [umol]
# T4 construct: for the full-length p110-b subunit are generated and fused by overlapping PCR; His tag (C); made in house; host or cells: baculovirus; Tn5 (Trichoplusia ni) or TiniPro insect cells
# T4 sequence (P42338 with tags, fused parts or gaps limits assumed): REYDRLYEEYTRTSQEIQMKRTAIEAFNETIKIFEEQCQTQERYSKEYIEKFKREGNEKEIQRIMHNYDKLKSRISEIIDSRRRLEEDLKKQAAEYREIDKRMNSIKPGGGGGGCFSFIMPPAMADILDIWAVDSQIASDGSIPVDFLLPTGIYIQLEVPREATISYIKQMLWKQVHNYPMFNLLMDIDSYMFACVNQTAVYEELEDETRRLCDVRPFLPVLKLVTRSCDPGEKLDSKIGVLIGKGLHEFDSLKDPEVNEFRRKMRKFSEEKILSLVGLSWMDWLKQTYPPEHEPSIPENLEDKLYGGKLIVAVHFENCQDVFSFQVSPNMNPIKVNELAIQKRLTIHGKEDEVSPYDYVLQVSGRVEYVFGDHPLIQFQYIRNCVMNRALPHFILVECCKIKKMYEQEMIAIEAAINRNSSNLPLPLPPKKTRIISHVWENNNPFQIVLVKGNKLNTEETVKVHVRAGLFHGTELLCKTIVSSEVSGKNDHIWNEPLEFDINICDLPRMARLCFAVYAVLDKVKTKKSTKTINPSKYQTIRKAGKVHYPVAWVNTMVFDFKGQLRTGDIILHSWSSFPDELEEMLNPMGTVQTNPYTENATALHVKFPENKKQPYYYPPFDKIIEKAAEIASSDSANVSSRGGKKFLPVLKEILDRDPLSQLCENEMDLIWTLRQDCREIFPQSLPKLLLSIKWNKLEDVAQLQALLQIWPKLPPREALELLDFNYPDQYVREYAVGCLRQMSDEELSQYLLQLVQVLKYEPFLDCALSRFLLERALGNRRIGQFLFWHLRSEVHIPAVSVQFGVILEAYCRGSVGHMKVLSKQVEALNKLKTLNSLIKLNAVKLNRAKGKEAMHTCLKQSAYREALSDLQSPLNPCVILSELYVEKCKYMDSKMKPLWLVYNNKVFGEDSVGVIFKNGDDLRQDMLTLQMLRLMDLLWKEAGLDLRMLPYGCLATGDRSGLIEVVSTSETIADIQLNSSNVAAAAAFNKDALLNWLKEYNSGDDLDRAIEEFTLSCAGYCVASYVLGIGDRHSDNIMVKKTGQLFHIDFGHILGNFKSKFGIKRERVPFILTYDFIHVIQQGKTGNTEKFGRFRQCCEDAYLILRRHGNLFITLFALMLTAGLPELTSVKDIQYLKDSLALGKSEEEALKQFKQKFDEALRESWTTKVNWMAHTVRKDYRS
# Summary of the method: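 PI3Kβ (25 nM, BV-949) with 10 μg/mL phosphatidylinositol in Tris pH 7.5/MgCl2/NaCl/CHAPS/DTT buffer; reaction started with 1 μM ATP, 60 min at room temperature. ATP depletion read by Kinase-Glo luminescence; 8-point dilutions, IC50 by four-parameter logistic fit.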
SMILES,IC50 (PI3K alfa) [µM],IC50 (PI3K delta) [µM],IC50 (PI3K gamma) [µM],IC50 (PI3K beta) [µM]
"COc1cc(-c2cnc3ccc(-c4cnc(N)c(C(F)(F)F)c4)nn23)ccc1C(=O)NCCCN1CCOCC1 [Example 125, 4-[6-(6-Amino-5-trifluoro-methyl-pyridin-3-yl)-imidazo [1,2-b]pyridazin-3-yl]-2-methoxy-N-(3-morpholin-4-yl-propyl)-benzamide]",0.026,0.055,0.49,0.182
"Nc1ncc(-c2ccc3ncc(-c4ccc(C(=O)NCCCN5CCOCC5)cc4)n3n2)cc1C(F)(F)F [Example 81, 4-[6-(6-Amino-5-trifluoromethyl-pyridin-3-yl)-imidazo [1,2-b]pyridazin-3-yl]-N-(3-morpholin-4-yl-propyl)-benzamide]",0.021,0.013,0.638,0.082
"Nc1ncc(-c2ccc3ncc(-c4cnc5c(c4)ncn5CCN4CCOCC4)n3n2)cc1C(F)(F)F [Example 143, 5-{3-[3-(2-Morpholin-4-yl-ethyl)-3H-imidazo [4,5-b]pyridin-6-yl]-imidazo [1,2-b]pyridazin-6-yl}-3-trifluoro-methyl-pyridin-2-ylamine]",0.044,0.028,1.18,0.072
"CNc1ncc(-c2cnc3ccc(-c4cnc(N)c(C(F)(F)F)c4)nn23)cn1 [Example 87, {5-[6-(6-Amino-5-trifluoro-methyl-pyridin-3-yl)-imidazo [1,2-b]pyridazin-3-yl]-pyrimidin-2-yl)-methylamine]",0.029,0.018,1.23,0.01
"Nc1ncc(-c2cnc3ccc(-c4ccc(OCCCN5CCNC5=O)cc4)nn23)cc1C(F)(F)F [Example 163, 1-(3-{4-[3-(6-Amino-5-trifluoro-methyl-pyridin-3-yl)-imidazo [1,2-b]pyridazin-6-yl]-phenoxy}-propyl)-imidazolidin-2-one]",0.069,0.086,1.89,0.908
"NCCn1cc(-c2ccc3ncc(-c4cnc(N)c(C(F)(F)F)c4)n3n2)ccc1=O [Example 70, 1-(2-Amino-ethyl)-5-[3-(6-amino-5-trifluoro-methyl-pyridin-3-yl)-imidazo [1,2-b]pyridazin-6-yl]-1H-pyridin-2-one]",0.058,0.063,0.491,0.049
"Nc1ncc(-c2ccc3ncc(-c4ccc(C(=O)NCCn5ccnc5)cc4)n3n2)cc1C(F)(F)F [Example 150, 4-[6-(6-Amino-5-trifluoro-methyl-pyridin-3-yl)-imidazo [1,2-b]pyridazin-3-yl]-N-{2-imidazol-1-yl-ethyl)-benzamide]",0.013,0.031,> 9.1,0.132
"CCS(=O)(=O)c1ccc(-c2cnc3ccc(-c4cnc(N)c(C(F)(F)F)c4)nn23)cc1 [Example 33, 5-[3-(4-Ethanesulfonyl-phenyl)-imidazo[1,2-b]pyridazin-6-yl]-3-trifluoro-methyl-pyridin-2-ylamine]",0.063,0.103,1.22,0.24
"C=CS(=O)(=O)c1ccc(-c2cnc3ccc(-c4cnc(N)c(C(F)(F)F)c4)nn23)cc1 [Example 104, 5-[3-(4-Ethene-sulfonyl-phenyl)-imidazo [1,2-b]pyridazin-6-yl]-3-trifluoro-methyl-pyridin-2-ylamine]",0.027,0.021,1.42,0.143
"Nc1ncc(-c2ccc3ncc(-c4ccc5c(cnn5CCCN5CCOCC5)c4)n3n2)cc1C(F)(F)F [Example 140, 5-{3-[1-(3-Morpholin-4-yl-propyl)-1H-indazol-5-yl]-imidazo [1,2-b]pyridazin-6-yl}-3-trifluoro-methyl-pyridin-2-ylamine]",0.037,0.027,0.712,0.135
"Nc1ncc(-c2ccc3ncc(-c4ccc(C(=O)N5CCN(Cc6ccccn6)CC5)cc4)n3n2)cc1C(F)(F)F [Example 85, {4-[6-(6-Amino-5-trifluoromethyl-pyridin-3-yl)-imidazo[1,2-b]pyridazin-3-yl]-phenyl}-(4-pyridin-2-ylmethyl-piperazin-1-yl)-methanone]",0.019,0.015,0.129,0.34
"COc1cc(-c2cnc3ccc(-c4cnc(N)c(C(F)(F)F)c4)nn23)ccc1C(=O)O [Example 109, 4-[6-(6-Amino-5-trifluoromethyl-pyridin-3-yl)-imidazo [1,2-b]pyridazin-3-yl]-2-methoxy-benzoic acid]",0.006,0.01,0.405,0.062
"Nc1ncc(-c2cnc3ccc(-c4ccc5c(c4)OCO5)nn23)cc1C(F)(F)F [Example 155, 5-(6-Benzo[1,3]dioxol-5-yl-imidazo [1,2-b]pyridazin-3-yl)-3-trifluoro-methyl-pyridin-2-ylamine]",0.07,0.174,> 9.1,0.639
"Nc1ncc(-c2ccc3ncc(-c4ccc(OCCn5cccn5)cc4)n3n2)cc1C(F)(F)F [Example 88, 5-{3-[4-(2-Pyrazol-1-yl-ethoxy)-phenyl]-imidazo[1,2-b]pyridazin-6-yl}-3-trifluoro-methyl-pyridin-2-ylamine]",0.128,0.148,2.43,0.993
"COc1ccc(-c2ccc3ncc(-c4cnc5[nH]ccc5c4)n3n2)cc1 [Example 47, 6-(4-Methoxy-phenyl)-3-(1H-pyrrolo [2,3-b]pyridin-5-yl)-imidazo [1,2-b] pyridazine]",2.72,3.85,> 9.1,> 9.1
"Nc1ncc(-c2cnc3ccc(-c4ccc(OCCN5CCCC5=O)c(F)c4)nn23)cc1C(F)(F)F [Example 94, 1-(2-{4-[3-(6-Amino-5-trifluoro-methyl-pyridin-3-yl)-imidazo [1,2-b]pyridazin-6-yl]-2-fluoro-phenoxy}-ethyl)-pyrrolidin-2-one]",0.062,0.146,2.15,0.441
"COc1ccc(-c2ccc3ncc(-c4cnc(N)cn4)n3n2)cc1OC [Example 38, 5-[6-(3,4-Dimethoxy-phenyl)-imidazo [1,2-b]pyridazin-3-yl]-pyrazin-2-ylamine]",0.092,0.121,1.69,0.226
"COc1cc(-c2cnc3ccc(-c4cnc(N)c(C(F)(F)F)c4)nn23)ccc1C(=O)N1CCN(CCc2ccccn2)CC1 [Example 133, {4-[6-(6-Amino-5-trifluoro-methyl-pyridin-3-yl)-imidazo [1,2-b]pyridazin-3-yl]-2-methoxy-phenyl)-[4-(2-pyridin-2-yl-ethyl)-piperazin-1-yl]-methanone]",0.038,0.033,1.28,0.302
"COc1cc(-c2ccc3ncc(-c4cnc(N)c(C(F)(F)F)c4)n3n2)ccc1OCCCNC(C)=O [Example 52, N-(3-{4-[3-(6-Amino-5-trifluoro-methyl-pyridin-3-yl)-imidazo [1,2-b]pyridazin-6-yl]-2-methoxy-phenoxy}-propyl)-acetamide]",0.022,0.295,2.22,0.364
